In brackets after ≈: the same amount, converted by molar mass. Like-named read-outs stand apart in the source and are kept apart here.
Assays:
[1] = HPLC measurement of the solubility of the anti-estrogen in an aqueous solution of 2-hydroxypropyl cyclodextrin; assay type: physicochemical; settings: room temperature; for solubility: read-out: Toremifene solubility (mg of toremifene / ml of cyclodextrin-water soln.)
Description: A weighed amount of 2-hydroxypropyl cyclodextrin was dissolved into distilled water by shaking with a shaker. The so formed clear solution was equilibrated with a large excess of antiestrogen at the boiling point. […] The solution was kept overnight at room temperature and the excess of precipitated antiestrogen was removed by centrifugation.
The separations were carried out at room temperature on a 35 * 4.6 mm stainless steel column (packed with 3-μm spherical octadecylsilanebonded silica particles; HS-3 C-18, (Perkin-Elmer, USA)
The mobile phase consisted of a mixture of acetonitrile: 0.05 M aqueous phosphate buffer containing 0.004 M of dimethyloctyl amine with a pH of 7.4. The flow rate was 0.8 ml/min.

[2] = Toremifene concentration in emulsion (Emulsan 20%) after filtration, spectrophotometric at 278 nm; assay type: physicochemical; settings: for Concentration after filtration: toremifene citrate in Emulsan 20%
Description: Emulsions prepared by dissolving the drug in a commercial fat emulsion.
The commercial fat emulsion used was Emulsan®20% (manufacturer Leiras-Kabi Infusion Ltd., Finland). […] The toremifene concentrations were 10 mg/ml, 14 mg/ml and 20 mg/ml. After the homogenization the samples were filtered through the 0.2 μm, 0.45 μm and 1.2 μm filters.
The concentration of toremifene was determined from the filtrate with a spectrofotometric method using the wave length of 278 nm. The samples were dissolved in methanol and diluted in the concentration of 0.02 mg/ml.

multidrug resistance = settings: high vs low plasma concentrations; J Clinical Oncology 1989; cited from earlier work

Row | Structure (SMILES) | Desmethyl toremifene solubility (ml of desmethyl toremifene / ml of cyclodextrin-water soln.) ([1]; 125 mg β-HPC/ml of aqueous soln.) | Concentration after filtration ([2]; 10 mg/ml before filtration, 0.2 μm filter) | Concentration after filtration ([2]; 10 mg/ml before filtration, 0.45 μm filter) | Concentration after filtration ([2]; 10 mg/ml before filtration, 1.2 μm filter) | Concentration after filtration ([2]; 14 mg/ml before filtration, 0.45 μm filter) | Concentration after filtration ([2]; 14 mg/ml before filtration, 1.2 μm filter) | Concentration after filtration ([2]; 20 mg/ml before filtration, 0.45 μm filter) | Concentration after filtration ([2]; 20 mg/ml before filtration, 1.2 μm filter) | solubility of toremifene by encapsulating in an emulsion droplet ([2]; emulsion droplet) | solubility ([1]; aqueous 2-hydroxypropyl cyclodextrin solution, 500 mg β-HPC/ml of aqueous soln.) | solubility ([1]; aqueous β-hpc solution, 25 mg/ml, 25 mg β-HPC/ml of aqueous soln.) | solubility ([1]; aqueous β-hpc solution, 63 mg/ml, 63 mg β-HPC/ml of aqueous soln.) | solubility ([1]; aqueous β-hpc solution, 125 mg/ml, 125 mg β-HPC/ml of aqueous soln.) | solubility ([1]; aqueous β-hpc solution, 250 mg/ml, 250 mg β-HPC/ml of aqueous soln.) | solubility ([1]; aqueous γ-hpc solution, 125 mg/ml, 125 mg Γ-HPC/ml of aqueous soln.) | solubility ([1]; aqueous γ-hpc solution, 250 mg/ml, 250 mg Γ-HPC/ml of aqueous soln.) | solubility ([1]; aqueous γ-hpc solution, 500 mg/ml, 500 mg Γ-HPC/ml of aqueous soln.) | solubility ([1]; water, 0 mg β-HPC/ml of aqueous soln.) | reversing multidrug resistance (multidrug resistance)
1 | CNCCOc1ccc(/C(=C(/CCCl)c2ccccc2)c2ccccc2)cc1 [desmethyl toremifene] | 21 mg/mL | – | – | – | – | – | – | – | – | – | – | – | – | – | – | – | – | – | –
2 | CN(C)CCOc1ccc(/C(=C(/CCCl)c2ccccc2)c2ccccc2)cc1 [toremifene] | – | 4400 µg/mL | 4000 µg/mL | 4400 µg/mL | 4300 µg/mL | 3700 µg/mL | 3600 µg/mL | 3600 µg/mL | can be increased considerably | 87.7 mg/mL (≈ 216 mM) | 7.4 mg/mL (≈ 18.2 mM) | 14.1 mg/mL (≈ 34.7 mM) | 21.7 mg/mL (≈ 53.5 mM) | 53 mg/mL (≈ 131 mM) | 36.3 mg/mL (≈ 89.4 mM) | 61.1 mg/mL (≈ 151 mM) | 125 mg/mL (≈ 309 mM) | 0.3 mg/mL (≈ 0.739 mM) | more effective in reversing multidrug resistance than low concentrations

Source: patent US5571534A, “Drug formulations for parenteral use” (Orion-yhtyma Oy, priority 1991, dated 1996)
